One assay concerns opiate receptor. To be noted: rat brain membranes, relative to morphine; cited from earlier work.
For another assay, the system named is rat. To be noted: relative to morphine, cited from earlier work.
The subject of a further assay is guinea pig ileum. The settings on record: guinea pig ileum test; cited from earlier work.
A further assay deals with mouse vas deferens. The settings on record: mouse vas deferens test; cited from earlier work.
The test system of assay [1] is guinea pig ileum longitudinal muscle with adhering myenteric plexus. The assay is described as follows: Guinea pig ileum test (electrically stimulated longitudinal muscle, inhibition of twitch height). In kind it is cell-based. To be noted: ratio of IC50 of reference compound Met^5-enkephalin to IC50 of test compound in the same preparation, averaged (N=4); reference given as 100. As to the method: Adult male guinea pigs (Charles River, Hartley strain) weighing 300-500 g. are decapitated, and the terminal ileum is exposed by reflecting the overlying cecum, severed at the ileocecal juncture, and removed while cutting the mesenteric attachments to avoid excessive traction on the tissue. The ileum (about 30 cm. in length) is transferred to a beaker containing warm modified Krebs-Henseleit solution (118 mM sodium chloride, 4.75 mM potassium chloride, 2.54 mM calcium chloride, 1.19 mM potassium dihydrogen phosphate, 1.2 mM magnesium sulfate, 25 mM sodium bicarbonate, 11 mM glucose, 20 μM choline chloride and 0.125 μM pyrilamine maleate). The terminal (aboral) portion (about 10 cm. in length) is discarded, and segments (3-4 cm. in length) are cut from the remainder and gently slid onto a glass rod (5-6 mm. in diameter) and arranged so that the mesenteric attachment is in a straight line. A cotton swab moistened in the solution is then carefully used to separate the longitudinal muscle from the underlying circular muscle. The longitudinal muscle and adhering myenteric plexus is then gently removed from the remaining tissue with forceps.
Strips of this prepared longitudinal muscle are mounted in a double-jacketed organ bath (5 ml.) under tension (1.0 g.), connected to isometric transducers (Grass FT .03), bathed in the modified Krebs-Henseleit solution described above, aerated with oxygen-carbon dioxide (95:5) and maintained at 37° C.
Stimulators (Grass S-44) are set to deliver repetitive monophasic square wave field stimulation (supramaximal voltage, 0.10 Hz., 0.25 msec. duration) through platinum ring electrodes at the top and bottom of the bath. Regular contractions of the muscle, which result from electrically-induced liberation of acetylcholine from postganglionic parasympathetic nerves, are recorded on a polygraph (Grass model 5). Following tissue equilibration (45-60 min.) and repeated washing (every 10 min.) an aqueous solution of a reference or test compound is added to the bath in a microliter volume (1.25-250 μl) and reductions in muscle twitch height are recorded. More compound can be added […] first washing the preparation.
From the results a half-maximal inhibitory concentration (IC50) value for the compound is computed by regression analysis of a linear plot of logarithm of concentration against percent of inhibition of twitch height (probits). The ratio of the IC50 value of a reference compound to that of a test compound tested in the same preparation is the molar potency ratio. Usually four preparations are tested simultaneously by the same person (N=4), and the resulting four molar potency ratios are averaged. […]

Where two headings read alike, the source gives them in different places. Where a SMILES comes first, the peptide text is derived from it. The star is where a group is joined. NHPhenethyl = c1ccc(CCN*)cc1 A value given as a limit tells only on which side of the number the result lay.

As for `C[C@@H](NC(=O)[C@@H](N)Cc1ccc(O)cc1)C(N)=O` [H-Tyr-D-Ala-NH2], the “times less affinity than morphine, opiate receptor binding” value in the assay on opiate receptor is recorded as 830 times. Also, the “times less potent than morphine, tail flick test” value in the assay with rat (intravenously) is reported as “greater than 10 times”; in the assay on rat (intraventricularly), 200 times.
Consider `C[C@@H](NC(=O)[C@@H](N)Cc1ccc(O)cc1)C(=O)NCCNCCc1ccccc1` [HTyrD-AlaNH(CH2)2 NH(CH2)2 Phenyl], for which the “potency relative to Met-enkephalin” value in the assay on guinea pig ileum and in the assay with mouse vas deferens was under 1% in each case.
Regarding Met^5 -enkephalin [Met^5 --enkephalin], the “Average Molar Potency Ratio” value in assay [1] came out at 100.
As to `N[C@@H](Cc1ccc(O)cc1)C(=O)N1CCC[C@H]1C(=O)NCCc1ccccc1` [Example 1, L-tyrosyl-N-(2-phenylethyl)-L-prolinamide] (H-Tyr-Pro-NHPhenethyl), the “Average Molar Potency Ratio” value in assay [1] is reported as 117.
Regarding `N[C@@H](Cc1ccc(O)cc1)C(=O)N1CCC[C@H]1C(=O)NCCCc1ccccc1` [Example 2, L-tyrosyl-N-(3-phenylpropyl)-L-prolinamide], the “Average Molar Potency Ratio” value in assay [1] came out at 6.
With `CN(CCCc1ccccc1)C(=O)[C@@H]1CCCN1C(=O)[C@@H](N)Cc1ccc(O)cc1` [Example 3, L-tyrosyl-N-methyl-N-(3-phenylpropyl)-L-prolinamide], the “Average Molar Potency Ratio” value in assay [1] is given as 9.

Source of the values: patent US4450155A, “Analgesic dipeptide amides and method of use and compositions thereof” (Sterling Drug Inc., priority 1982, dated 1984).
